Assay: Antibiotic release profile from scaffolds over 60 days
Type: physicochemical
Source text: As shown in FIG. 3(A), in the dual-layer scaffold structure incorporating crosslinked and directly incorporated antibiotic produced as described above, the porous scaffold structure necessary for efficient tissue regeneration was maintained. In addition, the porosity (>98%) and mean pore size, essential for optimal proliferation and differentiation of osteoblasts during bone regeneration, were not compromised after the loading of the drug into the collagen structure. Depending on the incorporation method, different release kinetics of the antibiotic from the materials were obtained. […] At day 10, approximately 90% of the teicoplanin was released when it was directly loaded into the slurry during the CHA scaffold fabrication.

teicoplanin
teicoplanin released (day 10, directly loaded into the slurry during CHA scaffold fabrication): approximately 90% | teicoplanin released (day 60, chemically attached (crosslinked) to scaffold): approximately 11%
